Measurements as given in ChEMBL document CHEMBL4024702, “Covalent Modifiers: A Chemical Perspective on the Reactivity of α,β-Unsaturated Carbonyls with Thiols via Hetero-Michael Addition Reactions” (J Med Chem, 2017).
Values belong to the molecule of their own block, whether it stands above or below them. Non-standard residues stand in square brackets, D forms with d. Residues, ends and D or L forms follow the SMILES beside them. *: point of attachment. Cbz = O=C(OCc1ccccc1)*; Dap = NC[C@H](N)C(=O)O

Key:
[1] = Inhibition of wild-type HCV genotype 1b protease using 5-FAM/QXL 520 as substrate after 60 to 90 mins by FRET-based assay; design: species or system Hepatitis C virus subtype 1b
[2] = Cysteine reactivity of the compound in CD3OD/deuterio phosphate buffer assessed as equilibrium constant for adduct formation at pH 7.4 by […] analysis
[3] = Butanethiol reactivity of the compound in CD3OD/deuterio phosphate buffer assessed as equilibrium constant for adduct formation at pH 7.4 by […] analysis
[4] = Methanethiol reactivity of the compound in CD3OD/deuterio phosphate buffer assessed as equilibrium constant for adduct formation at pH 7.4 by […] analysis
[5] = Beta-mercaptoethanol reactivity of the compound in CD3OD/deuterio phosphate buffer assessed as equilibrium constant for adduct formation at pH 7.4 by […] analysis
[6] = Glutathione reactivity of the compound in CD3OD/deuterio phosphate buffer assessed as equilibrium constant for adduct formation at pH 7.4 by […] analysis
[7] = Binding affinity to human rhinovirus serotype 14 3C protease; design: species or system rhinovirus B14
[8] = biological target: Adenosylhomocysteinase (Homo sapiens) (UniProt P23526); test: Inhibition of S-adenosyl-L-homocysteine hydrolase (unknown origin)
[9] = biological target: Adenosylhomocysteinase (Homo sapiens) (UniProt P23526); test: Ratio of Kinact to Ki for S-adenosyl-L-homocysteine hydrolase (unknown origin)
[10] = biological target: Sodium-dependent dopamine transporter (Rattus norvegicus, UniProt P23977); test: Inhibition of [3H]dopamine uptake at DAT in rat brain striatal synaptosomes by liquid scintillation counting analysis; assay type: subcellular, Striatum
[11] = biological target: Proto-oncogene tyrosine-protein kinase Src (Gallus gallus, UniProt P00523, S345C); test: Inhibition of chicken c-Src S345C mutant (251 to 533 residues) expressed in Escherichia coli by fluorescence assay
[12] = system: Proto-oncogene tyrosine-protein kinase Src (Gallus gallus), P00523 [S345C]; test: Ratio of Kinact to Ki for chicken c-Src S345C mutant (251 to 533 residues) expressed in Escherichia coli
[13] = Glutathione reactivity of the compound assessed as adduct formation after 2 mins by mass spectrometric analysis
[14] = Cysteine reactivity of the compound assessed as adduct formation after 2 mins by mass spectrometric analysis
[15] = Half life in rat plasma; assay type: ADME, cell-free
[16] = Half life in dog plasma; assay type: ADME, cell-free, Canis lupus familiaris
[17] = Half life in human plasma; assay type: ADME, cell-free
[18] = Cytotoxicity against human MRC5 cells; assay type: cell-based
Enterovirus = test: Antiviral activity against rhinovirus infected in human H1HeLa cells; assay type: functional; settings: H1-HeLa
rhinovirus B14 [19] = test: Irreversible inhibition of human rhinovirus serotype 14 3C protease assessed as ratio of Kobs/I
[20] = Glutathione reactivity of the compound in DMSO and phosphate buffer assessed as second order rate constant for adduct formation
[21] = Thiol reactivity of the compound assessed as equilibrium constant for adduct formation
[22] = Cysteine reactivity of the compound assessed as second order rate constant by 1H NMR analysis
[23] = Lysine reactivity of the compound in aqueous buffer assessed as drug recovery after 6 days at pH 7.4
Tetrahymena pyriformis = test: Toxicity in Tetrahymena pyriformis assessed as growth inhibition after 48 hrs
Exportin-1 = Exportin-1 (Homo sapiens, UniProt O14980); test: Inhibition of CRM1-mediated nucleocytoplasmic transport in human HeLa cells after 90 mins by immunofluorescence assay; assay type: cell-based
[24] = Reversible inhibition of human rhinovirus serotype 14 3C protease by fluorescence resonance energy transfer assay; design: species or system rhinovirus B14
[25] = Cytotoxicity against human H1HeLa cells after 2 days by XTT/PMS dye based assay; assay type: cell-based, H1-HeLa
rhinovirus B14 [26] = test: Antiviral activity against rhinovirus serotype 14 infected in human H1HeLa cells after 2 days by XTT/PMS dye based assay; assay type: functional, cell-based; settings: Rhinovirus B, H1-HeLa, 48 h
[27] = biological target: T1, Calpain-1 catalytic subunit (Homo sapiens, UniProt P07384); test: Inhibition of human calpain 1 protease using Ac-LLY-AFC as substrate after 1 hr by fluorescence assay
T1 sequence (P07384 whole entry): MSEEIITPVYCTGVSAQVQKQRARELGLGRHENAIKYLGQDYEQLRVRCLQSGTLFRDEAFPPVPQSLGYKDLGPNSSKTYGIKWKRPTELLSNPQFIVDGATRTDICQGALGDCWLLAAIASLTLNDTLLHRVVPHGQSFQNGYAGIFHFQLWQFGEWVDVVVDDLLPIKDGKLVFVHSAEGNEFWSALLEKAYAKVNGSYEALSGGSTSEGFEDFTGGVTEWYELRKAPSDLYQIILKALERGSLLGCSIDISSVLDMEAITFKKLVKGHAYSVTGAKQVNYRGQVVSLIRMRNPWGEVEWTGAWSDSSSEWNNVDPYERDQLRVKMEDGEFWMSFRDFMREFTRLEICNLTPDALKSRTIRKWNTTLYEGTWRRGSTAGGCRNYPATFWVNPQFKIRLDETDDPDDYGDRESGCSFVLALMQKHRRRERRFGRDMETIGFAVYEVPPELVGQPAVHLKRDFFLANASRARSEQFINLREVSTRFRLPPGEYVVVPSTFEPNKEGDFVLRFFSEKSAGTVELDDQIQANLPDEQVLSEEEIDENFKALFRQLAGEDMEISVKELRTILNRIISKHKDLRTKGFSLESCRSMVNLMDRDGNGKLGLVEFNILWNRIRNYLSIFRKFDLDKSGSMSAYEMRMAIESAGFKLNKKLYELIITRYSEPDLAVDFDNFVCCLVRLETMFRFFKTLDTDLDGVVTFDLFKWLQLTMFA

[28] = Glutathione reactivity of the compound assessed as second order rate constant by 1H NMR analysis

Sodium-dependent dopamine transporter, sequence (P23977 whole entry, the tested form may be a part): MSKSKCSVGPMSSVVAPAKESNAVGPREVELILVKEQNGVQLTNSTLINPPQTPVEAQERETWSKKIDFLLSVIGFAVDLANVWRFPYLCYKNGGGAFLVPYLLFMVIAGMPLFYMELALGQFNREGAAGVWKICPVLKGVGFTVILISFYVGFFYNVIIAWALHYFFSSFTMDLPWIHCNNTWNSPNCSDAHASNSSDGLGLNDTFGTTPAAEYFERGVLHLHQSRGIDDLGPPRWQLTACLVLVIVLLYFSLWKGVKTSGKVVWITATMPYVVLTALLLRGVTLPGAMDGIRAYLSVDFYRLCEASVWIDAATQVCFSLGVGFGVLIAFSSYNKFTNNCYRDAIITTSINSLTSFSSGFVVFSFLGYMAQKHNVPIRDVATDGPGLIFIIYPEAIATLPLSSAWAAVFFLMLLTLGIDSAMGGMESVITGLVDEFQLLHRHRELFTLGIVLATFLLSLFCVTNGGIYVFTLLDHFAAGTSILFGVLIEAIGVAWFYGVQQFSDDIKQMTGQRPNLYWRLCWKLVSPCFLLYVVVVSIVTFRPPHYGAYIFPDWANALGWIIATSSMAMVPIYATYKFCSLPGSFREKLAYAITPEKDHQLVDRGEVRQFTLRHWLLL
Exportin-1, sequence (O14980 whole entry): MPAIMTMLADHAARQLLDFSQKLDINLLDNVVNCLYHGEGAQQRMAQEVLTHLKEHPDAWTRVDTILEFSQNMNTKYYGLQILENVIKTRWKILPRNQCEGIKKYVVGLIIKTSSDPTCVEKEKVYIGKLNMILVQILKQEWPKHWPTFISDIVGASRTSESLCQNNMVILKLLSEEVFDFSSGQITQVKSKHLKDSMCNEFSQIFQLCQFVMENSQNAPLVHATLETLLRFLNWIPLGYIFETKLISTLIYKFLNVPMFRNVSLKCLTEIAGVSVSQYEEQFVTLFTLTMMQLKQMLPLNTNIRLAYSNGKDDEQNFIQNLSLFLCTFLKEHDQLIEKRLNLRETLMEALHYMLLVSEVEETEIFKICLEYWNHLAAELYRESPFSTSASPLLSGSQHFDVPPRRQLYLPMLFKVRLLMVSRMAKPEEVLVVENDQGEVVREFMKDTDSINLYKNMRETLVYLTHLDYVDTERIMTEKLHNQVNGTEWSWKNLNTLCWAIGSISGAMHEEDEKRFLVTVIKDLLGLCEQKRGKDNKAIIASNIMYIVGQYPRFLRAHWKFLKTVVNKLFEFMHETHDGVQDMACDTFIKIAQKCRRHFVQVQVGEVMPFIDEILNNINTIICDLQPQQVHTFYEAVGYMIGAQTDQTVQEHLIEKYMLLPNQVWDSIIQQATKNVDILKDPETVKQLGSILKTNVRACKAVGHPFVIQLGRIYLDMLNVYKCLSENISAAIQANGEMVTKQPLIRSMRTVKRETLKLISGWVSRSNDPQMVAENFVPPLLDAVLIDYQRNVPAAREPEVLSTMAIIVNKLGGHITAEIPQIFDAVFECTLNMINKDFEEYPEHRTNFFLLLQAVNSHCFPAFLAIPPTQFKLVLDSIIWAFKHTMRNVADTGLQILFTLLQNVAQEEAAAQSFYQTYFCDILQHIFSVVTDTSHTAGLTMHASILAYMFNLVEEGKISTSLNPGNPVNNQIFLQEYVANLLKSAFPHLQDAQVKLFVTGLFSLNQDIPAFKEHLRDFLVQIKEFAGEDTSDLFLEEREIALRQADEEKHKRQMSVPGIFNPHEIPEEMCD
Adenosylhomocysteinase (Homo sapiens), sequence (P23526 2-432 limits assumed): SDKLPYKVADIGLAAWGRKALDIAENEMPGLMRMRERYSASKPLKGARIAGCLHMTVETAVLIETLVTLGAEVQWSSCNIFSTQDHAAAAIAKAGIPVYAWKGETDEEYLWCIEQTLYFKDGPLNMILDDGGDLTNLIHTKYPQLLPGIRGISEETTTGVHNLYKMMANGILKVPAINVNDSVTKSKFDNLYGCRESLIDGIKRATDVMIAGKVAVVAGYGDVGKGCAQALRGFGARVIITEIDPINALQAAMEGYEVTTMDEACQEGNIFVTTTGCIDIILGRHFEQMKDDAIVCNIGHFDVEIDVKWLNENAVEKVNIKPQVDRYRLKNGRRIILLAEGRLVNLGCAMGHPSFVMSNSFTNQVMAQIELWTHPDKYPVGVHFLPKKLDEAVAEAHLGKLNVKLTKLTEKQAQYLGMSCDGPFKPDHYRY

IC50 [1]: 0.002 µM
SMILES: C=CC(=O)NCC(=O)N1C[C@H](Oc2nccc3ccc(Br)cc23)C[C@H]1C(=O)N[C@]1(C(=O)CS(=O)(=O)C2CC2)C[C@H]1C=C

SMILES: CCCCC[C@H](O)/C=C/[C@H]1C=CC(=O)[C@@H]1CCCCCCC(=O)OC
Ke [2]: 6.1 to 10.8 M⁻¹
Ke [3]: 6.1 to 10.8 M⁻¹
Ke [4]: 6.1 to 10.8 M⁻¹
Ke [5]: 6.1 to 10.8 M⁻¹
Ke [6]: 6.1 to 10.8 M⁻¹

SMILES: CC(=O)NC[C@@H](C=O)NC(=O)[C@H](Cc1ccccc1)NC(=O)[C@H](CC(C)C)NC(=O)OCc1ccccc1 (Cbz-Leu-Phe-[Dap](Ac)-aldehyde)
Ki [7]: 0.006 µM

K [8]: 84.9 M⁻¹ s⁻¹
Ratio [9]: 152 M⁻¹ s⁻¹
SMILES: COC1=C(OC)/C(=C/Cn2cnc3c(N)ncnc32)OC1=O

IC50 [1]: 1.15 µM
SMILES: C=C[C@@H]1C[C@]1(NC(=O)[C@@H]1C[C@@H](Oc2nccc3ccc(Br)cc23)CN1C(=O)[C@@H](C)NC(=O)CC)C(=O)CS(=O)(=O)C1CC1

SMILES: C=CC=O [ACROLEIN]
IC50 [10]: 52.5 µM

IC50 [11]: 0.002 µM
Ratio [12]: 1.03 M⁻¹ s⁻¹
SMILES: C=CS(=O)(=O)Nc1ccc2ncnc(Nc3cccc(Br)c3)c2c1

SMILES: CCCCC[C@@H](O)C/C=C1/C(=O)C=C[C@@H]1C/C=C\CCCC(=O)O
Drug metabolism [13]: 70%
Drug metabolism [14]: 85%

SMILES: C=CC(C)=O
IC50 [10]: 331 µM

half-life [15]: < 2 min
half-life [16]: > 1 h
half-life [17]: > 1 h
EC90 (Enterovirus): 0.018 to 0.261 µM
Ratio (rhinovirus B14 [19]): 1.47 ×10⁶ /M/s
SMILES: CCOC(=O)/C=C/C(C[C@@H]1CCNC1=O)NC(=O)[C@@H](CC(=O)[C@@H](NC(=O)c1cc(C)on1)C(C)C)Cc1ccc(F)cc1 (some centres undefined)
CC50 [18]: > 100 µM

SMILES: O=C1C=CCC1
K [20]: 25.6 M⁻¹ s⁻¹
Ke [21]: 3900 M⁻¹

IC50 [11]: 0.24 µM
Ratio [12]: 0.085 M⁻¹ s⁻¹
SMILES: CN(C)C/C=C/C(=O)Nc1ccc2ncnc(Nc3cccc(Br)c3)c2c1

SMILES: C=C[C@@]12COC(=O)C(=C)[C@@H]1[C@H]1OC(=O)C(=C)[C@@H]1[C@@H](O)C2
K [22]: 200 M⁻¹ s⁻¹
Drug recovery [23]: 75%

SMILES: CC1=CC(=O)CC1
EC50 (Tetrahymena pyriformis): 20900 µM
K [20]: 0.074 M⁻¹ s⁻¹
Ke [21]: 0.88 M⁻¹

IC50 (Exportin-1): 0.01 µM
SMILES: C/C=C(\C)C[C@H](C)[C@@H](O)[C@H](C)C(=O)[C@H](C)/C=C(C)/C=C/C[C@@H](C)/C=C(\C=C\[C@H]1CC=CC(=O)O1)CC

SMILES: CC(C)C[C@H](NC(=O)OCc1ccccc1)C(=O)N[C@@H](Cc1ccccc1)C(=O)N[C@H](/C=C1\CCCOC1=O)CCC(N)=O
Ki [24]: 0.03 µM
CC50 at 48 h [25]: > 100 µM
EC50 (rhinovirus B14 [26]): 16 µM

SMILES: CCCCC[C@@H](O)C/C=C1/C(=O)C[C@H](O)[C@@H]1C/C=C\CCCC(=O)O
Drug metabolism [14]: 60%

SMILES: CC1C(=O)CCC1Sc1ccccc1 (centres undefined)
Ke [21]: 1.28 M⁻¹

IC50 [27]: 0.003 to 0.079 µM
SMILES: CCCCCC/C=C\CC(=O)N[C@@H](CO)C(=O)N[C@H](C(=O)N[C@@H](CO)[C@@H](O)CC(=O)N[C@H](C(=O)N[C@@H]1/C=C/C(=O)N[C@@H](C(C)C)C(=O)N(C)[C@@H](Cc2ccc(O)cc2)C(=O)OC1)C(C)C)C(C)C

SMILES: C=C1CCOC1=O
K [28]: 1.3 ×10⁻⁴ /M/s

IC50 (Exportin-1): 0.025 µM
SMILES: CCC(=C/C(C)C)/C=C/[C@@H]1OC(=O)C=C[C@@H]1C

IC50 [10]: 46.8 µM
SMILES: CCN1C(=O)C=CC1=O [N-ETHYLMALEIMIDE]
K [22]: 3750 M⁻¹ s⁻¹

SMILES: CCCCC[C@H](O)/C=C/[C@H]1C=CC(=O)/C1=C/CCCCCC(=O)OC
Ke [2]: 0.35 to 1.6 M⁻¹
Ke [3]: 0.35 to 1.6 M⁻¹
Ke [4]: 0.35 to 1.6 M⁻¹
Ke [5]: 0.35 to 1.6 M⁻¹
Ke [6]: 0.35 to 1.6 M⁻¹

SMILES: CCC(=C/[C@H](C)C/C=C/C(C)=C/[C@@H](C)C(=O)[C@@H](C)[C@H](O)[C@@H](C)C/C(C)=C/C(=O)O)/C=C/[C@@H]1OC(=O)C=C[C@@H]1C [LEPTOMYCIN B]
IC50 (Exportin-1): 0.001 µM

IC50 [1]: 0.004 µM
SMILES: C=CC(=O)N[C@H](C)C(=O)N1C[C@H](Oc2nccc3ccc(Br)cc23)C[C@H]1C(=O)N[C@]1(C(=O)CS(=O)(=O)C2CC2)C[C@H]1C=C
